Target: T1, hTAS1R1/rTAS1R3(Mut1) (UniProt Q7RTX1+Q923K1, A277V/L68N/R278H/S168G/S302A)
T1 sequence (Q7RTX1 21-841): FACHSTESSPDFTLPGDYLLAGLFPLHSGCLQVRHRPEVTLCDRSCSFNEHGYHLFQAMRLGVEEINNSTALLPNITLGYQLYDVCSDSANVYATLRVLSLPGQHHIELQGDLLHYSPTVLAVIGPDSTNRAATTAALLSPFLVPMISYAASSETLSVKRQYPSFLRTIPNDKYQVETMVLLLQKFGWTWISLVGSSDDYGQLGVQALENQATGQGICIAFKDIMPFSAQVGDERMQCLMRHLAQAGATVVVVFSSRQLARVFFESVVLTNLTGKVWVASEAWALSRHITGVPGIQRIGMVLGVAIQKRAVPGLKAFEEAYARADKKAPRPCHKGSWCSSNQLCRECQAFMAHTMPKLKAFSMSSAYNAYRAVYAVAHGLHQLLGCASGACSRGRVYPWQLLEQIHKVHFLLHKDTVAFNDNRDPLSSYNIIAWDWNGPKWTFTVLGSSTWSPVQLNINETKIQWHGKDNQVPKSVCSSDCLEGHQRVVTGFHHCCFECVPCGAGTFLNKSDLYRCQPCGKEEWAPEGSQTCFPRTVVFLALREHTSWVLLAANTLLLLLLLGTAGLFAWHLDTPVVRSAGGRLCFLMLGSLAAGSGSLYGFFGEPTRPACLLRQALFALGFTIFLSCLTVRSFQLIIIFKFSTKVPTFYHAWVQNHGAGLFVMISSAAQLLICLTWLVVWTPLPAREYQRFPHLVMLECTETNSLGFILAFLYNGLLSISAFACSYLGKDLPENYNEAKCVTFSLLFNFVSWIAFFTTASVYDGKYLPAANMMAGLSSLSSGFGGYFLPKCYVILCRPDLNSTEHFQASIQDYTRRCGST
T1 sequence (Q923K1 21-858 L68N/S168G/A277V/R278H/S302A): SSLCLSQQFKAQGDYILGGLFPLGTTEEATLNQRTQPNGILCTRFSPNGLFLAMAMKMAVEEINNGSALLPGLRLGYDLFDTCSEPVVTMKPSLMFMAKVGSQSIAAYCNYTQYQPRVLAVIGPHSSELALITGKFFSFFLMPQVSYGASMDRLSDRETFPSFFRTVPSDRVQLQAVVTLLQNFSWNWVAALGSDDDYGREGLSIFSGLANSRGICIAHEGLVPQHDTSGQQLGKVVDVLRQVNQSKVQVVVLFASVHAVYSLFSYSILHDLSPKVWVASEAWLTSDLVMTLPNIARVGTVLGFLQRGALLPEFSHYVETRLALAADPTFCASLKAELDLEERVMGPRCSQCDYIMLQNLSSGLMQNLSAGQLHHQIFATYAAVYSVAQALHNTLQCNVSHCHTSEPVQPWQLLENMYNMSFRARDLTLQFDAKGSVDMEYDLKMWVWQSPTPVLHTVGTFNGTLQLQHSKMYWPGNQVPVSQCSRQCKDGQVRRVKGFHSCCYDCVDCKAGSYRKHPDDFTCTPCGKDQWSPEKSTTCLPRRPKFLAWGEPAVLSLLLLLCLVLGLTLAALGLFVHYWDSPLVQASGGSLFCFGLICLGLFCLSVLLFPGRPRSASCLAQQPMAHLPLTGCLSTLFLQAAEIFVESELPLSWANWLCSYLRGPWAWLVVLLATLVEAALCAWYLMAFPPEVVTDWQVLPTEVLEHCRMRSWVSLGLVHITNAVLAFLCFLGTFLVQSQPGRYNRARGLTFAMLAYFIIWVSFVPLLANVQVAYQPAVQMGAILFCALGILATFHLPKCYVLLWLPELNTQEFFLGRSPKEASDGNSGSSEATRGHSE
Test: Calcium assay, mutated rTAS1R3 co-expressed with hTAS1R1
Description: HEK293T/17 cells (ATCC CRL-11268) were seeded into clear bottom black 96-well plates coated with poly-D-lysine at a density of 32500 cells/well in 100 μL of DMEM containing 4.5 g/L glucose and supplemented with penicillin/streptomycin, 2 mM GlutaMAX and 10 % dialyzed fetal bovine serum. The plates were incubated for 24 h at 37 °C and 7.3 % CO2 in a humidified atmosphere. After incubation, using Fugene® 4 K (0.46 μL/well, Promega, Illkirch, France), the cells were transiently transfected with pcDNA3-hTAS1R1-WT (60 ng/well) or TAS1R1 mutants, pcDNA4-rTAS1R3 (60 ng/well), pcDNA3-Gα15i2 (10 ng/well), and pGP-CMV-GCaMP6s (Addgene #40753; 10 ng/well) as a genetically encoded calcium indicator. Twenty-four hours after transfection, the HEK293T/17 cells were rinsed with 100 μL of C1 buffer (130 mM NaCl, 5 mM KCl, 10 mM HEPES, 2 mM CaCl2, and 5 mM sodium pyruvate, pH 7.4). For each molecule tested, a semi-logarithmic concentration range was created consisting of seven increasing concentrations and a negative control (zero dose) made of buffer C1. Binary mixtures with different molecules were also made to study potential synergy. In this case, the concentration range was tested in C1 buffer containing the other molecules to be tested. The concentration ranges varied depending on the molecule, its solubility, and its effectiveness in activating the receptor. All the solutions were made on the day of the test to prevent any oxidation of the compounds. If needed, the pH of each solution was adjusted by to pH 7.4 by adding NaOH. After 20 s of basal fluorescence calcium measurement, the cells were stimulated via automatic injection of a range of compounds in eight wells, and the signal emission was recorded for an additional 70 s, via a FlexStation 3® fluorometric microplate reader (Molecular Devices, San Jose, CA, USA). As a control, molecules were also tested on mock-transfected cells with the empty vector. The emitted fluorescence was measured at a wavelength of 510 nm after excitation at 488 nm. Each measurement was performed in duplicate on the same plate, and the experiments were carried out at least four times. Kinetic data were acquired via SoftMax Pro 5.4.6 software (Molecular Devices). For each well, the decrease in the raw fluorescence as the relative fluorescence changed was calculated as ΔF/F0. Replicates were averaged for the wells subjected to the same stimuli, the background signal was subtracted, and the fluorescence changes in mock-transfected cells were subtracted. The half-maximal effective concentration (EC50) and maximal signal amplitude (max ∆F/F0) were calculated via non-linear regression of the sigmoidal function four-parameter logistic equation [f(x) = min + (max − min)/(1 + (x/EC50)^nH)] via SigmaPlot 15.0 software (Grafiti LLC, Palo Alto, CA, USA). […] For a clearer understanding of the results, the amplitude values in certain dose-response curves were normalized to max ∆F/F0 = 1, to eliminate the differences in amplitude.
We also selected other residues surrounding the cavity that differed from species to species and were not directly involved in ligand binding but rather in dynamic phenomena resulting in signal transmission, namely, four residues located less deep in the binding cavity that we mutated to their human counterparts (Y281H, S282A, P67S, L72W) (Mut2) (Fig. S3). Finally, we targeted positions at the interface between the VFTs of TAS1R1 and TAS1R3. […] A double mutant (E221Q and R173L) (Mut3) was thus created. For each group, we constructed multisite mutants (penta-, quadruple-, or double-mutants) to assess their combined effects efficiently.

| SMILES | EC50 [mM] | response to the agonist alone (Mut1) | effect of the added compound on the response to L-Glu (Mut1) |
| --- | --- | --- | --- |
| CCCC(CCC)NC(=O)c1ccc2c(c1)OCO2 [S807, N-(heptan-4-yl)benzo[d][1,3]dioxole-5-carboxamide, reference compound] | 0.00169 ± 0.0001 | unaffected | – |
| N[C@@H](CCC(=O)N[C@@H](CS)C(=O)NCC(=O)O)C(=O)O [GSH, γ-L-glutamyl-L-cysteinyl-glycine] | 9.01 ± 0.697 | reduced | increased |
| N[C@@H](CCC(=O)O)C(=O)O [L-Glu, L-glutamic acid, reference compound] | – | responded | – |

Source: PMC12615753, “Glutathione as a taste modulator: molecular mechanisms of interaction with umami and sweet taste receptors” (Food Chemistry: Molecular Sciences, 2025)
